Entries after “also recorded” stand apart in the source; their conditions may differ.
Key:
[1] = molecular target: T1, human EGFR expressed in COS-7 cells (Homo sapiens, UniProt P00533); test: Normal p-EGFR level in EGFRwt-expressing COS-7 cells without oligomeric Aβ42 (Western blot); assay type: cell-based; details: 100 μg/ml compound, EGFRwt-expressing COS-7 cells without oligomeric Aβ42 peptides
T1 construct: expressed in transfected cells; host or cells: COS-7
Protocol: FIG. 2. […] 100 μg/ml JKF-006, JKF-011 and JKF-027 were used to treat EGFR^wt-expressing COS-7 cells without oligomeric Aβ42 peptides. […] N=3-4.
(§1) COS-7 cells were cultured in normal Dulbecco's Modified Eagle Medium (D-MEM) containing 10% fetal bovine serum (Invitrogen) at 37° C. in 5% CO2. Transfection of the cells with an EGFR^WT plasmid was performed following the Lipofectamine 2000 manuals (Invitrogen). After 48 h, cells were washed with fresh medium once and incubated with 10 or 25 μg/ml Aβ42 oligomers for 15 min at 37° C. in 5% CO2. 0.5 μg/ml human EGF (Sigma) was used as a positive control. Cells were then washed with PBS for 3 times and collected.
(§2) Whole fly head or cells lysates were prepared using a RIPA buffer containing 0.3% SDS, 50 mM Tris-HCl, pH 7.4, 0.5% NP-40, 1% sodium deoxycholate, 150 mM NaCl, 5 mM EDTA, 1 tablet per 50 ml complete protease inhibitor cocktail (Roche Diagnostics). Lysates were diluted in an SDS sample buffer and separated on 10-20% Tris-Tricine gels (Invitrogen), and transferred to nitrocellulose membranes (Invitrogen). The membranes were boiled in PBS for 3 min, blocked with 5% non-fat dry milk and blotted with a first antibody. First antibodies used included mouse anti-Aβ42 (6E10, Covance Research Products), mouse anti-dEGFR (Abcam), rabbit anti-hEGFR (Cell Signaling), mouse anti-hEGFR-p (Cell Signaling) and rabbit anti-Actin (Sigma). Data were analyzed with the ImageJ software (National Institutes of Health).

Aβ42 transgenic flies = test: Pavlovian olfactory associative immediate memory in Aβ42 transgenic flies; assay type: in vivo, Drosophila; details: Aβ42 transgenic male flies, 7-day drug feeding, 50 μg/ml, tested day 10 after eclosion
Protocol: Behavioral screening was performed with 2000 synthetic compounds (purchased from TimTec LLC, USA) with structures that are presumably targeted to protein kinase activities (FIG. 1A). Only male flies were selected for 7-day drug treatment and then subjected to behavioral assay at day 10 after eclosion. […] Among them, 9 were tested in double transgenic mice and compounds were indicated to have positive results after 2 months of treatment (6- to 8-month-old) (FIG. 1A-G).

[2] = tested on: double transgenic mice (APPswe.PSEN1dE9); test: Morris water maze in double transgenic AD-model mice; assay type: in vivo, mouse; details: two-month treatment (6- to 8-month-old), lavage once daily
[3] = molecular target: T1, human EGFR expressed in COS-7 cells; test: Oligomeric Aβ42-induced phosphorylation of EGFR in COS-7 cells transfected with EGFRwt plasmid (Western blot); assay type: cell-based; details: 10 μg/ml oligomeric Aβ42, COS-7 cells transfected with EGFRwt plasmid
Protocol: as §1
The preparation procedure was described previously (Dahlgren K, et al., J Biol Chem. 277:32046-53, 2002). Synthetic and recombinant wild type Aβ42 (AnaSpec, Inc.) was initially dissolved to 1 mM in hexafluoroisopropanol (Sigma).
Hexafluoroisopropanol was removed under vacuum in a Speed Vac, and the peptide film was stored at −20° C. For oligomer preparation, the peptide was first resuspended in DMSO to a concentration of 12.5 mg/ml and then diluted with DMEM/F-12 (phenol red-free, Invitrogen) to a final concentration of 500 μg/ml and incubated at 4° C. for 24 h.
as §2
Behavioral screening was performed with 2000 synthetic compounds (purchased from TimTec LLC, USA) with structures that are presumably targeted to protein kinase activities (FIG. 1A). […]

| Compound | Effect on normal (endogenous) p-EGFR level [1] | Rescue/prevention of Aβ42-induced memory loss (performance index) (Aβ42 transgenic flies) | Rescue of Aβ-induced memory loss (Morris water maze) ([2]; 55 mg/kg/day) | Effect on oligomeric Aβ42-induced increase of p-EGFR activity [3] | Rescue of Aβ-induced memory loss (Morris water maze) ([2]; 58 mg/kg/day) | Rescue of Aβ-induced memory loss (Morris water maze) ([2]; 14 mg/kg/day) |
| --- | --- | --- | --- | --- | --- | --- |
| 2-Propenamide, 2-cyano-N-[2-(1H- indol-3-yl)ethyl]-3-[5- (4-morpholinyl)-2- furanyl]- [JKF-027] | None of the compounds changed the p-EGFR level; also recorded: incapable of affecting the endogenous p-EGFR level | effective in rescuing memory loss | Rescue of Aβ-induced memory loss; also recorded: effective results in rescuing the memory loss | capable of inhibiting induced p-EGFR activity; also recorded: significantly inhibit | – | – |
| N#C/C(=C/c1ccc(-c2cc(C(=O)O)ccc2Cl)o1)C(=O)Nc1ccc(F)cc1 [JKF-006, Benzoic acid, 4-chloro-3-[5-[2-cyano-3-[(4-fluorophenyl)amino]-3-oxo-1-propen-1-yl]-2-furanyl]-] | None of the compounds changed the p-EGFR level; also recorded: incapable of affecting the endogenous p-EGFR level | effective in rescuing memory loss | – | capable of inhibiting induced p-EGFR activity; also recorded: significantly inhibit | Rescue of Aβ-induced memory loss; also recorded: effective results in rescuing the memory loss | – |
| O=C1CNCCN1 [JKF-011, Piperazin-2-one] | None of the compounds changed the p-EGFR level; also recorded: incapable of affecting the endogenous p-EGFR level | effective in rescuing memory loss | – | capable of inhibiting induced p-EGFR activity; also recorded: significantly inhibit | – | Rescue of Aβ-induced memory loss; also recorded: effective results in rescuing the memory loss |

— patent US9084793B2, “Methods for treating Alzheimer's disease by administering certain synthetic compounds” (BEIJING JOEKAI BIOTECHNOLOGY LLC, priority 2011, dated 2015)
